Some results are limits rather than exact numbers.

Chain of Wild type FGFR2 (P21802 22-821): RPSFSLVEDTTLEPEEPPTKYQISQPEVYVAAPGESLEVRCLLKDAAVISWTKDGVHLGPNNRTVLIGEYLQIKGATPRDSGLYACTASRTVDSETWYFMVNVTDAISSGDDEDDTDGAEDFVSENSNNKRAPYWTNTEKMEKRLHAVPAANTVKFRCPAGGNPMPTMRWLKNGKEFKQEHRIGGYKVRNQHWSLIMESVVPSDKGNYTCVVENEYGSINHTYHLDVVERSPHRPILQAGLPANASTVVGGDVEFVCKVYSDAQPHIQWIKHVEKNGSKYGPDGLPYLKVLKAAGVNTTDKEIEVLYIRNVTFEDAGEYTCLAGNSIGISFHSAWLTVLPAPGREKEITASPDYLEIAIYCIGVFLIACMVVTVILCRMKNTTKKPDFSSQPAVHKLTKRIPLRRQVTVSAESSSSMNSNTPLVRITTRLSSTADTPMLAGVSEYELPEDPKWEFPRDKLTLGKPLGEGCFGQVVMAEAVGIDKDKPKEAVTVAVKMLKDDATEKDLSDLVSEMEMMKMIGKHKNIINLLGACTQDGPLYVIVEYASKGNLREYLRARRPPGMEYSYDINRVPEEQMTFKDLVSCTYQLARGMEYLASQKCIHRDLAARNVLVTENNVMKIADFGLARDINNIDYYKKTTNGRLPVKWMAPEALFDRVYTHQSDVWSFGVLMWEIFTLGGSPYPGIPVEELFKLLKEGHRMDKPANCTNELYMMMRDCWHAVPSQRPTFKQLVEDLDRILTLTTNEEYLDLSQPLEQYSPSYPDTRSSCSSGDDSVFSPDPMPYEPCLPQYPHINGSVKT

The assay concerns the target Wild type FGFR2 (Homo sapiens (Human), UniProt P21802). In words: FGFR2 kinase assay (fluorescence-based microfluidic mobility shift assay). In kind it is biochemical. As to conditions: wild type FGFR2 0.06 nM, 100 μM ATP, 80 minutes at room temperature; class symbols.
`C=CC(=O)N1C[C@@H](n2nc(C#Cc3ccc4c(c3)nc(C3CC3)n4CC)c(C(N)=O)c2NC)C[C@@H]1COC` [Example 25, 1-((3S,5R)-1-acryloyl-5-(methoxymethyl)pyrrolidin-3-yl)-3-((2-cyclopropyl-1-ethyl-1H-benzo[d]imidazol-5-yl)ethynyl)-5-(methylamino)-1H-pyrazole-4-carboxamide]: the IC50 (as a rule, the concentration needed to halve the response being measured) is ≤ 100 nM. `C=CC(=O)N1C[C@@H](n2nc(C#Cc3ccc4c(c3)nc(C(F)(F)F)n4CC)c(C(N)=O)c2NC)C[C@@H]1COC` [Example 27, 1-((3S,5R)-1-acryloyl-5-(methoxymethyl)pyrrolidin-3-yl)-3-((1-ethyl-2-(trifluoromethyl)-1H-benzo[d]imidazol-5-yl)ethynyl)-5-(methylamino)-1H-pyrazole-4-carboxamide]: the IC50 is ≤ 100 nM.

Turning to `C=CC(=O)N1C[C@@H](n2nc(C#Cc3cc4nc(C)n(C)c4cc3F)c(C(N)=O)c2NC)C[C@@H]1COC` [Example 28, 1-((3S,5R)-1-acryloyl-5-(methoxymethyl)pyrrolidin-3-yl)-3-((6-fluoro-1,2-dimethyl-1H-benzo[d]imidazol-5-yl)ethynyl)-5-(methylamino)-1H-pyrazole-4-carboxamide], the IC50 is ≤ 100 nM. The figure for `C=CC(=O)N1C[C@@H](n2nc(C#Cc3c(F)cc4c(ncn4CC)c3F)c(C(N)=O)c2NC)C[C@@H]1COC` [Example 29, 1-((3S,5R)-1-acryloyl-5-(methoxymethyl)pyrrolidin-3-yl)-3-((1-ethyl-4,6-difluoro-1H-benzo[d]imidazol-5-yl)ethynyl)-5-(methylamino)-1H-pyrazole-4-carboxamide] is ≤ 100 nM; for `C=CC(=O)N1C[C@@H](n2nc(C#Cc3c(F)cc4c(ncn4C(F)F)c3F)c(C(N)=O)c2NC)C[C@@H]1COC` [Example 30, 1-((3S,5R)-1-acryloyl-5-(methoxymethyl)pyrrolidin-3-yl)-3-((1-(difluoromethyl)-4,6-difluoro-1H-benzo[d]imidazol-5-yl)ethynyl)-5-(methylamino)-1H-pyrazole-4-carboxamide] it is ≤ 100 nM; for `C=CC(=O)N1C[C@@H](n2nc(C#Cc3cc4ncn(CC)c4cc3F)c(C(N)=O)c2NC)C[C@@H]1COC` [Example 32, 1-((3S,5R)-1-acryloyl-5-(methoxymethyl)pyrrolidin-3-yl)-3-((1-ethyl-6-fluoro-1H-benzo[d]imidazol-5-yl)ethynyl)-5-(methylamino)-1H-pyrazole-4-carboxamide] it is ≤ 100 nM. The figure for `C=CC(=O)N1C[C@@H](n2nc(C#Cc3cc4nc(C)n(CC)c4cc3Cl)c(C(N)=O)c2NC)C[C@@H]1COC` [Example 33, 1-((3S,5R)-1-acryloyl-5-(methoxymethyl)pyrrolidin-3-yl)-3-((6-chloro-1-ethyl-2-methyl-1H-benzo[d]imidazol-5-yl)ethynyl)-5-(methylamino)-1H-pyrazole-4-carboxamide] is ≤ 100 nM. Turning to `C=CC(=O)N1C[C@@H](n2nc(C#Cc3c(F)cc4c(nc(C)n4CC(F)(F)F)c3F)c(C(N)=O)c2NC)C[C@@H]1COC` [Example 35, 1-((3S,5R)-1-acryloyl-5-(methoxymethyl)pyrrolidin-3-yl)-3-((4,6-difluoro-2-methyl-1-(2,2,2-trifluoroethyl)-1H-benzo[d]imidazol-5-yl)ethynyl)-5-(methylamino)-1H-pyrazole-4-carboxamide], the IC50 is ≤ 100 nM.

Consider `C=CC(=O)N1C[C@@H](n2nc(C#Cc3ccc4ncn(CC)c4c3F)c(C(N)=O)c2NC)C[C@@H]1COC` [Example 36, 3-[2-(3-ethyl-4-fluoro-1,3-benzodiazol-5-yl)ethynyl]-1-[(3S,5R)-5-(methoxymethyl)-1-(prop-2-enoyl)pyrrolidin-3-yl]-5-(methylamino)pyrazole-4-carboxamide], for which the IC50 fell in the range of 100 to 1000 nM. The figure for `C=CC(=O)N1C[C@@H](n2nc(C#Cc3cc4nc(C)n(CC)c4cc3F)c(C(N)=O)c2NC)C[C@@H]1COC` [Example 37, 3-[2-(1-ethyl-6-fluoro-2-methyl-1,3-benzodiazol-5-yl)ethynyl]-1-[(3S,5R)-5-(methoxymethyl)-1-(Prop-2-enoyl)pyrrolidin-3-yl]-5-(methylamino)pyrazole-4-carboxamide] is ≤ 100 nM; for `C=CC(=O)N1C[C@@H](n2nc(C#Cc3ccc4c(nc(C)n4CC)c3Cl)c(C(N)=O)c2NC)C[C@@H]1COC` [Example 38, 3-[2-(4-chloro-1-ethyl-2-methyl-1,3-benzodiazol-5-yl)ethynyl]-1-[(3S,5R)-5-(methoxymethyl)-1-(prop-2-enoyl)pyrrolidin-3-yl]-5-(methylamino)pyrazole-4-carboxamide] it is ≤ 100 nM; for `C=CC(=O)N1C[C@@H](n2nc(C#Cc3ccc4c(n3)nc(C)n4CC)c(C(N)=O)c2NC)C[C@@H]1COC` [Example 39, 3-(2-[1-ethyl-2-methylimidazo[4,5-b]pyridin-5-yl]ethynyl)-1-[(3S,5R)-5-(methoxymethyl)-1-(prop-2-enoyl)pyrrolidin-3-yl]-5-(methylamino)pyrazole-4-carboxamide] it is 100 to 1000 nM.

`C=CC(=O)N1C[C@@H](n2nc(C#Cc3cc4ncn(C)c4cc3F)c(C(N)=O)c2NC)C[C@@H]1COC` [Example 40, 3-[2-(6-fluoro-1-methyl-1,3-benzodiazol-5-yl)ethynyl]-1-[(3S,5)-5-(methoxymethyl)-1-(prop-2-enoyl)pyrrolidin-3-yl]-5-(methylamino)pyrazole-4-carboxamide]: the IC50 was ≤ 100 nM. As to `C=CC(=O)N1C[C@@H](n2nc(C#Cc3ccc4ncn(C)c4c3F)c(C(N)=O)c2NC)C[C@@H]1COC` [Example 41, 3-[2-(4-fluoro-^-1-methyl-1,3-benzodiazol-5-yl)ethynyl]-1-[(3S,5R)-5-(methoxymethyl)-1-(prop-2-enoyl)pyrrolidin-3-yl]-(methylamino)pyrazole-4-carboxamide], the IC50 was 100 to 1000 nM.

Consider `C=CC(=O)N1C[C@@H](n2nc(C#Cc3ccc4[nH]c(C5CC5)nc4c3)c(C(N)=O)c2NC)C[C@@H]1COC` [Example 42, 3-[2-(2-cyclopropyl-1H-1,3-benzodiazol-5-yl)ethynyl]-1-[(3S,5R)-5-(methoxymethyl)-1-(prop-2-enoyl)pyrrolidin-3-yl]-5-(methylamino)pyrazole-4-carboxamide], for which the IC50 is ≤ 100 nM.

On to `C=CC(=O)N1C[C@@H](n2nc(C#Cc3ccc4c(c3)nc(C3CC3)n4C)c(C(N)=O)c2NC)C[C@@H]1COC` [Example 43, 3-[2-(2-cyclopropyl-1-methyl-1,3-benzodiazol-5-yl)ethynyl]-1-[(3S,5R)-5-(methoxymethyl)-1-(prop-2-enoyl)pyrrolidin-3-yl]-5-(methylamino)pyrazole-4-carboxamide], for which the IC50 was ≤ 100 nM.

As to `C=CC(=O)N1C[C@@H](n2nc(C#Cc3ccc4c(C)noc4c3)c(C(N)=O)c2NC)C[C@@H]1COC` [Example 44, 1-[(3S,5R)-5-(methoxymethyl)-1-(prop-2-enoyl)pyrrolidin-3-yl]-3-[2-(3-methyl-1,2-benzoxazol-6-yl)ethynyl]-5-(methylamino)pyrazole-4-carboxamide], the IC50 was ≤ 100 nM.

For `C=CC(=O)N1C[C@@H](n2nc(C#Cc3c(F)cc4c(nc(C5CC5)n4CC)c3F)c(C(N)=O)c2NC)C[C@@H]1COC` [Example 45, 3-[2-(2-cyclopropyl-1-ethyl-4,6-difluoro-1,3-benzodiazol-5-yl)ethynyl]-1-[(3S,5R)-5-(methoxymethyl)-1-(prop-2-enoyl)pyrrolidin-3-yl]-5-(methylamino) pyrazole-4-carboxamide], the IC50 was ≤ 100 nM.

As to `C=CC(=O)N1C[C@@H](n2nc(C#Cc3c(F)cc4[nH]c(C(F)(F)F)nc4c3F)c(C(N)=O)c2NC)C[C@@H]1COC` [Example 46], the IC50 is ≤ 100 nM.

In the case of `C=CC(=O)N1C[C@@H](n2nc(C#Cc3cc4nc(C)n(CC)c4cn3)c(C(N)=O)c2NC)C[C@@H]1COC` [Example 48, 3-(2-[3-Ethyl-2-methylimidazo[4,5-c]pyridin-6-yl]ethynyl)-1-[(3S,5R)-5-(methoxymethyl)-1-(prop-2-enoyl)pyrrolidin-3-yl]-5-(methylamino)pyrazole-4-carboxamide], the IC50 was 100 to 1000 nM.

On to `C=CC(=O)N1C[C@@H](n2nc(C#Cc3c(F)cc4c(nc(C5CC5)n4C)c3F)c(C(N)=O)c2NC)C[C@@H]1COC` [Example 50, 3-[2-(2-Cyclopropyl-4,6-difluoro-1-methyl-1,3-benzodiazol-5-yl)ethynyl]-1-[(3S,5R)-5-(methoxymethyl)-1-(prop-2-enoyl)pyrrolidin-3-yl]-5-(methylamino)pyrazole-4-carboxamide], for which the IC50 was ≤ 100 nM.

Consider `C=CC(=O)N1C[C@@H](n2nc(C#Cc3ccc4c(nc(C5CC5)n4C)c3F)c(C(N)=O)c2NC)C[C@@H]1COC` [Example 51, 1-((3S,5R)-1-Acryloyl-5-(methoxymethyl)pyrrolidin-3-yl)-3-((2-cyclopropyl-4-fluoro-1-methyl-1H-benzo[d]imidazol-5-yl)ethynyl)-5-(methylamino)-1H-pyrazole-4-carboxamide], for which the IC50 is ≤ 100 nM. The figure for `C=CC(=O)N1C[C@@H](n2nc(C#Cc3ccc4cccnc4c3)c(C(N)=O)c2NC)C[C@@H]1COC` [Example 52, 1-[(3S,5R)-5-(Methoxymethyl)-1-(prop-2-enoyl)pyrrolidin-3-yl]-5-(methylamino)-3-[2-(quinolin-7-yl)ethynyl]pyrazole-4-carboxamide] is ≤ 100 nM; for `C=CC(=O)N1C[C@@H](n2nc(C#Cc3ccn4nccc4n3)c(C(N)=O)c2NC)C[C@@H]1COC` [Example 53, 1-[(3S,5R)-5-(Methoxymethyl)-1-(prop-2-enoyl)pyrrolidin-3-yl]-5-(methylamino)-3-(2-[pyrazolo[1,5-a]pyrimidin-5-yl]ethynyl)pyrazole-4-carboxamide] it is 100 to 1000 nM. For `C=CC(=O)N1C[C@@H](n2nc(C#Cc3ccn4ccnc4c3)c(C(N)=O)c2NC)C[C@@H]1COC` [Example 54, 1-((3S,5R)-1-Acryloyl-5-(methoxymethyl)pyrrolidin-3-yl)-3-(imidazo[1,2-a]pyridin-7-ylethynyl)-5-(methylamino)-1H-pyrazole-4-carboxamide], the IC50 was ≤ 100 nM.

For the origin of these results see US11345681B1, “Inhibitors of fibroblast growth factor receptor kinases” (Kinnate Biopharma Inc., priority 2020, dated 2022).
